From US20040044069A1, “Anti-virus compounds” (priority 2002, published 2004)
Read-outs that look alike come from different tables or passages of the source.

Tests used:
herpesvirus 5 = herpesvirus 5 plaque reduction assay in MRC-5 cell monolayers; format: cell-based, human herpesvirus 5 (HCMV)
Procedure: Compound 1 was isolated from a unique Taiwanese plant (Taiwania cryptomerioides). See, e.g., Chang et al. (2000) Phytochemistry 55: 227. Antiviral drug ganciclovir (i.e., […], GCV) was purchased from Sigma. Both compounds were solubilized in 100% dimethyl sulfoxide (DMSO) at a concentration of 10 mM and stored at −20° C. The compounds were added to cultures such that the resulting concentrations of DMSO never exceed 0.05%, by volume. To reserve the stability of both compounds, Compound 1 and GCV were never stored in cell culture medium and made fresh for each experiment.
Human cell lines, HEL299 (ATCC CCL-137), MRC-5 (ATCC CCL-171), H1299 (CRL-5803), and ARPE19 (CRL-2302) were grown in respective culture media as indicated by the ATCC. All cell lines were screened periodically for mycoplasma contamination. Two HCMV lab strains, AD169 (VR-538) and the Town strain RC256 (the ATCC VR-2356) were purchased from ATCC. All stocks of HCMV were prepared as described in Spaete & Mocarski (1985) J Virol 54(3): 817-24.
The activities of Compound 1 and GCV against herpesvirus 5 were determined by a plaque reduction assay. All herpesvirus 5 plaque reduction assays were performed with monolayer cultures of MRC-5 cells in 6-well cluster dishes (Costar, Cambridge, Mass.). Briefly, one day before the experiment, MRC-5 cells were seeded into 6-well plates at a final concentration of 5×10^6 cells/well. On the day of virus inoculation, cells were treated with each test compound at a desired concentration for one hour before virus inoculation. The serially-diluted virus inoculums containing 10^5 to 10^0 PFU of herpesvirus […] were then added into cell cultures and incubated for additional 2 hours at 37° C. After the incubation, the cells were extensively washed with phosphate buffered saline (PBS) three times and then overlayed with the overlay medium containing 0.3% agar in the absence or presence of the test compounds. The cell cultures were maintained in the 37° C. incubator for two weeks. After removing the overlay agar, the cells were stained with crystal violet.

[1] = system: herpesvirus 5 immediate early protein 2 (IE2 protein); test: expression of herpesvirus 5 IE2 and late proteins in infected HEL299 cells; format: cell-based; settings: AD169, MOI 1.0, lysates day 0-7 post-infection
Procedure: Cell-free virus stock, whose titer had been determined by a plaque reduction assay, was used. One day before the experiment, herpesvirus 5-permissive cells were seeded into 6-well plates at a final concentration of 5×10^6 cells/well. On the day of viral infection, the cells were incubated with or without a test compound (Compound 1 or GCV) for one hour. Subsequently, the cells were washed with PBS twice and serum-free medium were added during virus inoculation. The virus inocula were approximately at a multiplicity of infection (MOI) of 0.1 to 1 PFU/cell depending on which cell line was used. After two hours of incubation with viruses, cells were washed with PBS to remove unbound viruses. The cells were maintained at fresh media with or without test compounds at 37° C. with 5% CO2 incubator. The cell lysate samples were collected on day 0, 1, 3, 5, and 7 after virus infection.
More specifically, HEL299 cells were infected with herpesvirus 5 lab strain AD169 at an MOI of 1.0. Cell lysates were then collected after 2 hours of virus absorption on day 0, 1, 3, 5, and 7 post-infection. IE2 protein in virally infected cells was expressed rapidly on day 1 and increased dramatically on day 5. The expression of herpesvirus 5 late proteins was also detected on days 5 and 7 post-infection.

[2] = system: herpesvirus 5 ie and pp150 transcripts; test: reverse transcription (RT) assay of ie and pp150 transcripts in infected HEL299 cells; format: cell-based, herpesvirus 5 lab strain AD169; settings: AD169, MOI 1.0, total RNA day 0-7 post-infection
Procedure: To determine whether the absence of IE2 protein expression was due to Compound 1-induced abrogation at the transcriptional level, a reverse transcription (RT) assay was performed to measure the IE2 mRNA in the absence or presence of Compound 1. Basically, HEL299 cells were infected with herpesvirus 5 lab strain AD169 at a MOI of 1.0. Total RNAs were then extracted, collected after 2 hours of virus absorption on day 0, 1, 3, 5, and 7 post-infection. The expression of immediate early (ie) and late (pp150) gene products were determined by amplifying segments spanning at a common region shared by ie genes 1 and 2, and the 5′ end of pp150. As an internal control, a segment spanning β-actin was also amplified. […] The expression of pp150 transcripts was also detected after day 3.

[3] = cytotoxic effect by MTS assay; format: cell-based; settings: human, read-out: LC50 value (i.e., half lethal concentration)
Procedure: The cytotoxic effect was also determined using the MTS (3-(4,5-dimethylthiazol-2-yl)-5-(3-carboxymethoxyphenyl)-2-(4-sulfophenyl)-2H-tetrazolium, inner salt) assay method described in Goodwin et al. (1995, J. Immunol. Methods. 179: 95).

O=C1OCc2c1cc1ccc3c(c1c2-c1ccc2c(c1)OCO2)OCO3 [Compound 1, 10-benzo[1,3]dioxol-5-yl-9H-furo[3′,4′:6,7]naphtho[1,2-d][1,3]dioxol-7-one]
IC50 (herpesvirus 5; Human betaherpesvirus 5, MRC5, read-out: IC50 value (i.e., 50% infectious concentration)): < 0.1 µM
potency relative to GCV (herpesvirus 5; IC50 compared with that of GCV): ten-fold more potent
SI (selectivity index=LC50/IC50) (herpesvirus 5; LC50 (MTS)/IC50 (plaque reduction)): > 160
herpesvirus 5 growth in the presence of compound (herpesvirus 5; plaque reduction, MRC-5 cells): inhibited
detection of IE2 and late viral proteins in infected cells [1]: none of these viral proteins was detected
detection of viral RNA (ie and pp150 transcripts) [2]: none of these viral RNA was detected
CC50 [3]: > 16 µM

Nc1nc2c(ncn2COC(CO)CO)c(=O)[nH]1 [GCV, 2-amino-1,9-dihydro-9-[(2-hydroxy-1-(hydroxymethyl)ethoxy)methyl]-6H-purin-6-one, reference compound]
IC50 (herpesvirus 5; Human betaherpesvirus 5, MRC5, plaque reduction, MRC-5 cells, herpesvirus 5, read-out: IC50 value (i.e., 50% infectious concentration)): 1 µM
